According to patent US10700298B2, “OLED display panel and electronic device comprising the same” (SHANGHAI TIANMA AM-OLED CO., LTD., priority 2016, dated 2020):
Values after ≈ are worked out from the molar mass of the structure shown.

Experiment: Solubility of the hole transporting material in NMP
Format: physicochemical
Settings: N-methylpyrrolidone

solubility in NMP | Structure (SMILES)
1.2 mg/mL (≈ 1.51 mM) | c1ccc(-c2ccc(N(c3ccc(-c4ccccc4)cc3)c3ccc(-c4ccc(N(c5ccc(-c6ccccc6)cc5)c5ccc(-c6ccccc6)cc5)cc4)cc3)cc2)cc1 [Comparative Example 1, reference compound]
2.5 mg/mL (≈ 2.95 mM) | c1ccc(-c2ccc(N(c3ccc(-c4ccccc4)cc3)c3ccc(-c4ccc(N(c5ccc(-c6ccccc6)cc5)c5ccc(-c6ccccc6)cc5)c5c4CCCC5)cc3)cc2)cc1 [Comparative Example 3, reference compound]
15 mg/mL (≈ 17.1 mM) | Cc1cccc(-c2ccc(N(c3ccc(-c4cccc(C)c4)cc3)c3ccc(-c4cc(C)c(N(c5ccc(-c6cccc(C)c6)cc5)c5ccc(-c6cccc(C)c6)cc5)c(C)c4)cc3)cc2)c1 [Example 1]
25 mg/mL (≈ 26.8 mM) | Cc1cccc(-c2ccc(N(c3ccc(-c4cc(C)c(N(c5ccc(-c6cccc(C)c6)c(C)c5)c5ccc(-c6cccc(C)c6)c(C)c5)c(C)c4)cc3)c3ccc(-c4cccc(C)c4)c(C)c3)cc2C)c1 [Example 2]
12 mg/mL (≈ 13.1 mM) | CC(C)c1ccc(-c2ccc(N(c3ccc(-c4ccccc4)cc3)c3ccc(-c4ccc(N(c5ccc(-c6ccccc6)cc5)c5ccc(-c6ccc(C(C)C)cc6)cc5)c(C(C)C)c4)cc3)cc2)cc1 [Example 3]
12 mg/mL (≈ 13.5 mM) | Cc1cc(N(c2ccc(-c3ccccc3)cc2)c2ccc(-c3ccc(C(C)C)cc3)cc2)ccc1-c1ccc(N(c2ccc(-c3ccccc3)cc2)c2ccc(-c3ccc(C(C)C)cc3)cc2)cc1 [Example 4]
35 mg/mL (≈ 39.4 mM) | Cc1ccc(-c2ccc(N(c3ccc(-c4cccc(C)c4)cc3)c3ccc(-c4ccc(N(c5ccc(-c6ccccc6)cc5)c5ccc(-c6ccc(C)cc6)cc5)c5c4CCCC5)cc3)cc2)cc1 [Example 9]
19 mg/mL (≈ 19.3 mM) | Cc1cccc(-c2ccc(N(c3ccc(-c4cccc5c4CCCC5)cc3)c3ccc(-c4ccc(N(c5ccc(-c6cccc(C)c6)cc5)c5ccc(-c6cccc7c6CCCC7)cc5)c5c4CCCC5)cc3)cc2)c1 [Example 10]
15 mg/mL (≈ 16.4 mM) | Cc1cc(N(c2ccc(-c3ccccc3)cc2)c2ccc(-c3cccc4c3CCCC4)cc2)ccc1-c1ccc(N(c2ccc(-c3ccccc3)cc2)c2ccc(-c3cccc4c3CCCC4)cc2)cc1 [Example 11]
21 mg/mL (≈ 21.4 mM) | Cc1ccccc1-c1ccc(N(c2ccc(-c3ccccc3)cc2)c2ccc(-c3ccc(N(c4ccc(-c5ccccc5)cc4)c4ccc(-c5ccccc5C)c5c4CCCC5)c4c3CCCC4)cc2)c2c1CCCC2 [Example 12]

Experiment: not given
Settings: in words; material disclosed in CN103108859; cited from earlier work

Structure (SMILES) | solubility
CC1(C)c2ccccc2-c2ccc(N(c3ccc4c(c3)C3(c5ccccc5-c5ccccc53)c3ccccc3-4)c3ccccc3-c3ccccc3)cc21 | good
